Experimental data: patent US8552002B2 (Novartis AG, priority 2004, dated 2013)

Assays:
wild type Bcr-abl = target: T1, wild type Bcr-abl (Homo sapiens, UniProt P00519); assay: Antiproliferative effect on cells expressing wild type Bcr-abl; type: cell-based; settings: cell proliferation
T1 construct: the major C-terminal part (exons 2-11) of the c-abl gene; expressed in transfected cells; host or cells: murine 32D (32D-p210) or Ba/F3 cells; the other entry of the earlier key: BCR (P11274, Breakpoint cluster region protein)
Description: 32D-p210 cells are plated into 96 well TC plates at a density of 15,000 cells per well. 50 μL of two fold serial dilutions of the test compound (Cmax is 40 μM) are added to each well (STI571 is included as a positive control). After incubating the cells for 48 hours at 37° C., 5% CO2, 15 μL of MTT (Promega) is added to each well and the cells are incubated for an additional 5 hours. The optical density at 570 nm is quantified spectrophotometrically and IC50 values, the concentration of compound required for 50% inhibition, determined from a dose response curve.
Compounds of the invention are tested for their antiproliferative effect on Ba/F3 cells expressing either wild type or the mutant forms of BCR-Abl (G250E, E255V, T315I, F317L, M351T) that confers resistance or diminished sensitivity to STI571. The antiproliferative effect of these compounds on the mutant-BCR-Abl expressing cells and on the non transformed cells were tested at 10, 3.3, 1.1 and 0.37 μM as described above (in media lacking IL3). The IC50 values of the compounds lacking toxicity on the untransformed cells were determined from the dose response curves obtained as describe above.

PDGFRβ = PDGFRβ (Homo sapiens, UniProt P09619); assay: Inhibition of PDGFRβ; type: biochemical
Description: Compounds selectively inhibiting the proliferation of these BCR-Abl transformed cells are tested for anti-proliferative activity on Ba/F3 cells expressing either wild type or the mutant forms of Bcr-abl. In addition, compounds are assayed to measure their capacity to inhibit FGFR35 (in an enzyme and cellular assay), FLT3, PDGFRβ, trkB, c-SRC, BMX, SGK, Tie2, Lck, JNK2α2, MKK4, c-RAF, MKK6, SAPK2α and SAPK2β kinases.

CSK = target: T2, CSK (Homo sapiens, UniProt P41240); assay: Upstate KinaseProfiler radio-enzymatic filter binding assay; type: biochemical; settings: read-out: percentage inhibition of CSK
T2 construct: purchased Upstate (KinaseProfiler panel)
Description: (§1) Compounds of the invention are assessed for their ability to inhibit individual members of a panel of kinases (a partial, non-limiting list of kinases includes: Abl, BCR-Abl, BMX, FGFR35, Lck, JNK1, JNK2, CSK, RAF, MKK6 and P38). The compounds are tested in duplicates at a final concentration of 10 μM following this generic protocol. Note that the kinase buffer composition and the substrates vary for the different kinases included in the “Upstate KinaseProfiler™” panel. Kinase buffer (2.5 μL, 10×—containing MnCl2 when required), active kinase (0.001-0.01 Units; 2.5 μL), specific or Poly(Glu4-Tyr) peptide (5-500 μM or 0.01 mg/ml) in kinase buffer and kinase buffer (50 μM; 5 μL) are mixed in an eppendorf on ice. A Mg/ATP mix (10 μL; 67.5 (or 33.75) mM MgCl2, 450 (or 225) μM ATP and 1 μCi/μl [γ-^32P]-ATP (3000 Ci/mmol)) is added and the reaction is incubated at about 30° C. for about 10 minutes. The reaction mixture is spotted (20 μL) onto a 2 cm×2 cm P81 (phosphocellulose, for positively charged peptide substrates) or Whatman No. 1 (for Poly (Glu4-Tyr) peptide substrate) paper square. The assay squares are washed 4 times, for 5 minutes each, with 0.75% phosphoric acid and washed once with acetone for 5 minutes. The assay squares are transferred to a scintillation vial, 5 ml scintillation cocktail are added and ^32P incorporation (cpm) to the peptide substrate is quantified with a Beckman scintillation counter. Percentage inhibition is calculated for each reaction.

SAPK2β = target: T3, SAPK2β (Homo sapiens, UniProt Q15759); assay: as above; type: biochemical; settings: read-out: percentage inhibition of SAPK2β
T3 construct: purchased Upstate (KinaseProfiler panel)
Description: as §1

c-SRC = target: T4, c-SRC (Homo sapiens, UniProt P12931); assay: as above; type: biochemical; settings: read-out: percentage inhibition of c-SRC
T4 construct: purchased Upstate (KinaseProfiler panel)
Description: as §1

lck = target: T5, lck (Homo sapiens, UniProt P06239); assay: as above; type: biochemical; settings: read-out: percentage inhibition of lck
T5 construct: purchased Upstate (KinaseProfiler panel)
Description: as §1

T5 sequence (P06239 whole entry, species assumed): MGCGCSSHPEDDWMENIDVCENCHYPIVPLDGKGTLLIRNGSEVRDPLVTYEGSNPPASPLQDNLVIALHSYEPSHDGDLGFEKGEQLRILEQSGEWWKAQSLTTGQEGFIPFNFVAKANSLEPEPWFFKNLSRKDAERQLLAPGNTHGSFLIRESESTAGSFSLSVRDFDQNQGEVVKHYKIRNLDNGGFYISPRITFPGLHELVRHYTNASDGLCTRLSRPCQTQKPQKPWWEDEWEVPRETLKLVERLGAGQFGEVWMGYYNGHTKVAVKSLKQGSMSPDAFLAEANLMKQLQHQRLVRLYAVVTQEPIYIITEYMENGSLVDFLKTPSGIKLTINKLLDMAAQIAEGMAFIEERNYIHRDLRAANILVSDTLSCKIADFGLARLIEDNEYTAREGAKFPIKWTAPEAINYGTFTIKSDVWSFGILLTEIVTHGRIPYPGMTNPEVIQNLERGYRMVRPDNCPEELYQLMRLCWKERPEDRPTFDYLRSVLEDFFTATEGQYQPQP
T1 sequence (P00519 with tags, fused parts or gaps): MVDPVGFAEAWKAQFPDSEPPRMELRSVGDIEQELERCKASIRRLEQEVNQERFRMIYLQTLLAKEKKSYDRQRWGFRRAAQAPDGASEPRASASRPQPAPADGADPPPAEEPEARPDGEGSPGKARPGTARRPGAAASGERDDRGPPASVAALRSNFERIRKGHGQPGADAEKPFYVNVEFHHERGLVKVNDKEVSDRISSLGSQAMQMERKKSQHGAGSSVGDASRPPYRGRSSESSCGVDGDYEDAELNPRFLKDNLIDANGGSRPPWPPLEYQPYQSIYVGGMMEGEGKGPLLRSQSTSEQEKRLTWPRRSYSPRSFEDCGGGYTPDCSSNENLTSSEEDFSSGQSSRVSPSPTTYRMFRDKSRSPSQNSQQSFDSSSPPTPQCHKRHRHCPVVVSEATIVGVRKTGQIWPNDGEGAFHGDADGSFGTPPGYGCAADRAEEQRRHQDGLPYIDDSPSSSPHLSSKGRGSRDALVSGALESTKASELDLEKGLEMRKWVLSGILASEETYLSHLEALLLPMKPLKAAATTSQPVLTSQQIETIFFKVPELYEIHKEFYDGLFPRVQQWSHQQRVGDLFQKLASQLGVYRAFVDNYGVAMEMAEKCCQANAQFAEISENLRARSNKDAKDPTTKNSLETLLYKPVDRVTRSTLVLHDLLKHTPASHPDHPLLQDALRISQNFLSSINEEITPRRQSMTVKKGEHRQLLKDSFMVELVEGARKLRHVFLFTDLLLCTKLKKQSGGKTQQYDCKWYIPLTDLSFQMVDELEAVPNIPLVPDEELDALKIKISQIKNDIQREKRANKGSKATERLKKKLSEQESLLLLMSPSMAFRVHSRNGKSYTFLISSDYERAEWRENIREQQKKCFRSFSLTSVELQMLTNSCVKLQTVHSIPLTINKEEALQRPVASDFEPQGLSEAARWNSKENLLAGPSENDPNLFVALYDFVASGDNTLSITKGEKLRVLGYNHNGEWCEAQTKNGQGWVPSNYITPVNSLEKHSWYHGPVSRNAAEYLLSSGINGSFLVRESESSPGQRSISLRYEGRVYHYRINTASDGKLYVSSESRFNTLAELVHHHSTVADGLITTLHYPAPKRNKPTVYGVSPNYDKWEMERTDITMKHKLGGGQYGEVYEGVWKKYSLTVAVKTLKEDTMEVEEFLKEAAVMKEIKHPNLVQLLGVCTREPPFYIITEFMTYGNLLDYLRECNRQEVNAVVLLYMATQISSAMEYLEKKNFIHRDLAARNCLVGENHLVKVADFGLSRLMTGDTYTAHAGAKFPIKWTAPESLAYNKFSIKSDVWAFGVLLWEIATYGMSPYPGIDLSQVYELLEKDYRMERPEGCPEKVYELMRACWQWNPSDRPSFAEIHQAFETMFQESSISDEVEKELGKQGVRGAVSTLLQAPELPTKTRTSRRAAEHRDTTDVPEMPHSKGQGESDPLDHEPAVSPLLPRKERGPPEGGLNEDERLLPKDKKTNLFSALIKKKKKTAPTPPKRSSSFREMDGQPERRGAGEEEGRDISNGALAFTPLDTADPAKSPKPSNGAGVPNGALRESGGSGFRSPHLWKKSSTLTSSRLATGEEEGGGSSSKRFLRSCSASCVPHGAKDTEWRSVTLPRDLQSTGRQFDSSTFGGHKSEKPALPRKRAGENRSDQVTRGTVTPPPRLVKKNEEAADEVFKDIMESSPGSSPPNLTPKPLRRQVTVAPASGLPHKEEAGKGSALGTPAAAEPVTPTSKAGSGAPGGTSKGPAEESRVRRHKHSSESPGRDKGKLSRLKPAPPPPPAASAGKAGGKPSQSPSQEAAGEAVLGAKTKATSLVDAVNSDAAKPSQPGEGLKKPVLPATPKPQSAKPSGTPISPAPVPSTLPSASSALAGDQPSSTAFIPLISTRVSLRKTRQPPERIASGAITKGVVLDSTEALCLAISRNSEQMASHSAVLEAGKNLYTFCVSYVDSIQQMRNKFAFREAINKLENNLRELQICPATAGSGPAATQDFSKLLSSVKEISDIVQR
Chain of PDGFRβ (P09619 33-1106, species assumed): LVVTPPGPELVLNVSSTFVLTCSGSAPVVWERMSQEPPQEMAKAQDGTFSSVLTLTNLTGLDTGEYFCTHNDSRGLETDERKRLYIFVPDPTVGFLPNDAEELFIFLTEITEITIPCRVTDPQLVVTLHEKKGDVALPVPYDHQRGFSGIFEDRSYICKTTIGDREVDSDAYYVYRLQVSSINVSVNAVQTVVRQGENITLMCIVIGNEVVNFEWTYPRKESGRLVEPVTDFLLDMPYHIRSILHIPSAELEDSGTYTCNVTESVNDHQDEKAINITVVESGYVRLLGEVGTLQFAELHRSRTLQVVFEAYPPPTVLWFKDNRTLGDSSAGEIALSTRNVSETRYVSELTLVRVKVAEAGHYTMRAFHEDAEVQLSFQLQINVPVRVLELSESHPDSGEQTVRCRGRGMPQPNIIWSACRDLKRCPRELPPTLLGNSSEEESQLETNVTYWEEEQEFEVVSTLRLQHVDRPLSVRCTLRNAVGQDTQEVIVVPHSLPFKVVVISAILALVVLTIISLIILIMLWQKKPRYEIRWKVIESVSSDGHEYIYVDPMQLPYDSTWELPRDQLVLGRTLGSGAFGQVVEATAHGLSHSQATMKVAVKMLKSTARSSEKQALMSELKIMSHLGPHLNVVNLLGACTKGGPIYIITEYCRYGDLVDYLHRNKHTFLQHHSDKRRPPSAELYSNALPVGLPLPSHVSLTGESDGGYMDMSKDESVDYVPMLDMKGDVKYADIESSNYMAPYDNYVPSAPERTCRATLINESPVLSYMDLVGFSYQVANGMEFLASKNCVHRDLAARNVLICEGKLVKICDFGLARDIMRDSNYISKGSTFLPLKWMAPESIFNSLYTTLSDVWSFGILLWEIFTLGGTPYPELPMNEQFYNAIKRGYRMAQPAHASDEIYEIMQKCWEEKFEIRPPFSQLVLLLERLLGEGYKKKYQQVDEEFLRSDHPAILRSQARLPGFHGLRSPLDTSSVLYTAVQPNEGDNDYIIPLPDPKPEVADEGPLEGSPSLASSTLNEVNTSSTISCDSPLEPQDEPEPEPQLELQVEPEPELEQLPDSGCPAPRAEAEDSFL
T4 sequence (P12931 whole entry, species assumed): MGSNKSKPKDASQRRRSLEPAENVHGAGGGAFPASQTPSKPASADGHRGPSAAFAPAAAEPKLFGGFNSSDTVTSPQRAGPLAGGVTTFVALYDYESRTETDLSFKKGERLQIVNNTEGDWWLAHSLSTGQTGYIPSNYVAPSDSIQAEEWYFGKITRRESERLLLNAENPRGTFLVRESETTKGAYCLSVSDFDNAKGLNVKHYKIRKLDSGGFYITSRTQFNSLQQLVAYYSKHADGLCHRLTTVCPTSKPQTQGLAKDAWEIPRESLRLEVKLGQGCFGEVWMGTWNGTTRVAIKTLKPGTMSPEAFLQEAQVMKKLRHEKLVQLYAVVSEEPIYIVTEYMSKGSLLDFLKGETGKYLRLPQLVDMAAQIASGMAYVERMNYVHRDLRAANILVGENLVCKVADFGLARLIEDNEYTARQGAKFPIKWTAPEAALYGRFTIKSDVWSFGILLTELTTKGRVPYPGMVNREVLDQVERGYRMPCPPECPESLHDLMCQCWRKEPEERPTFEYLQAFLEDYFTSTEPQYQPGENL
T3 sequence (Q15759 whole entry): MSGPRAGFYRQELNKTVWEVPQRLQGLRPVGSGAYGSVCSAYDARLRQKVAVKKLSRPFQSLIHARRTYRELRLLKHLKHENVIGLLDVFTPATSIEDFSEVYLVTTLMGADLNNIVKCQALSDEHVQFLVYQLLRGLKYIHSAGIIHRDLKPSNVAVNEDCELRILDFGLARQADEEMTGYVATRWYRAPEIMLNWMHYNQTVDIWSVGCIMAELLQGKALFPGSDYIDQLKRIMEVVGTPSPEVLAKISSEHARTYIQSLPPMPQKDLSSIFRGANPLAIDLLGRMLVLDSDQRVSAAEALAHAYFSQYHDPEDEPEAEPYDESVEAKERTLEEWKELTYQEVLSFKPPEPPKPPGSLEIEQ

- IC50 (wild type Bcr-abl): 10 nM
- IC50 (PDGFRβ): 2 nM
- inhibition at 10 µM (CSK): 97%
- inhibition at 10 µM (SAPK2β): 99%
- inhibition at 10 µM (c-SRC): 100%
- inhibition at 10 µM (lck): 100%
SMILES: Cc1ccc(NC(=O)c2cccc(C(F)(F)F)c2)cc1NC(=O)N(CCCN1CCCC1=O)c1cc(N)ncn1 [Example 215, N-(3-{3-(6-Amino-pyrimidin-4-yl)-3-[3-(2-oxo-pyrrolidin-1-yl)-propyl]-ureido}-4-methyl-phenyl)-3-trifluoromethyl-benzamide]
